This is an account of results in publication PMC8955485, “Journey on VX-809-Based Hybrid Derivatives towards Drug-like F508del-CFTR Correctors: From Molecular Modeling to Chemical Synthesis and Biological Assays” (Pharmaceuticals, 2022).

Several values for one entry are separate records, joined by “and”; a condition that tells them apart may be missing. Identical values can stand only once. Like-named read-outs stand apart in the source and are kept apart here.

Test [1] concerns the target T1, F508del-CFTR (Homo sapiens, UniProt P13569, DEL508-508). The test can be described thus: HS-YFP functional assay for F508del-CFTR correctors in CFBE41o- cells. The test is classed as cell-based. Also on record: expressed in transfected cells. The settings on record: for EC50: CFBE41o- cells stably expressing F508del-CFTR and HS-YFP, 24 h incubation, stimulation with forskolin 20 µM plus VX-770 1 µM; for F508del-CFTR corrector activity (in words): CFBE41o- cells, HS-YFP assay, 24 h. As to the method:
The ability of these compounds to correct the basic defects related to F508del mutant was evaluated on immortalized CFBE41o-bronchial epithelial cells stably expressing F508del-CFTR and the halide sensitive yellow fluorescent protein (HS-YFP).
The measurements of the rate of HS-YFP quenching caused by iodide influx allowed us to determine the activity of F508del-CFTR, after incubation with the compounds, as cited. Activity was then compared to that of cells treated with the corrector VX-809 (1 µM) or with vehicle alone (DMSO).
Within the novel third series of hybrids herein proposed, based on their potency and efficacy in terms of CFTR rescue, we selected six compounds and determined the dose–response relationships (Figure 6). To this aim, F508del-CFTR expressing CFBE41o-cells were treated for 24 h with our hybrids 9b, 9f, 9g, 9h, 9j, and 9y and then mutant CFTR activity was measured by using the YFP functional assay (see Materials and Methods section for details).
Immortalized bronchial epithelial CFBE41o-cells with stable co-expression of the halide-sensitive yellow fluorescent protein (HS-YFP) and of F508del-CFTR were cultured using MEM medium supplemented with 10% fetal calf serum, 100 U/mL penicillin, 2 mM L-glutamine, and […] streptomycin.
CFBE41o-cells co-expressing mutants CFTR and HS-YFP were plated (50,000 cells/well) on clear-bottom 96-well black microplates (Corning Life Sciences, Acton, MA) and grown at 37 °C in 5% CO2 for 24 h. For the corrector assay, CFBE41o-cells were treated for further 24 h with compounds as indicated. The following day, prior to the assay, the culture medium was removed and cells were stimulated for 30 min at 37 °C with 60 µL PBS (containing 137 mM NaCl, 2.7 mM KCl, 8.1 mM Na2HPO4, 1.5 mM KH2PO4, 1mM CaCl2, and 0.5 mM MgCl2) plus forskolin (20 µM) and VX-770 (1 µM).
Microplates containing CFBE41o-cells were then transferred to a plate reader (FluoStar Galaxy; BMG Labtech, Offenburg, Germany) equipped with excitation (HQ500/20X: 500 ± 10 nm) and emission (HQ535/30M: 535 ± 15 nm) filters for YFP (Chroma Technology, Brattleboro, VT, USA). During the assay fluorescence was measured continuously for 14 s with 2 s before and 12 s after injection of an iodide containing solution (165 µL of a modified PBS containing I^- instead of Cl^-; final I^- concentration in the well: 100 mM).
Fluorescence data were normalized for the initial value and fluorescence quenching rate following I^- influx, were determined by fitting the final 10 s of data for each well with an exponential function to extrapolate initial slope (dF/dt).
To evaluate the dose–response relationships, activity slopes obtained for each compound at the different concentrations were fitted with the Hill equation using the Igor software (WaveMetrics) to extrapolate EC50, maximal effect, and Hill coefficient.

Test [2] deals with T1, F508del-CFTR. Also on record: expressed in transfected cells. The settings on record: first series of hybrids, cited from earlier work; for pEC50: from EC50 of ref 27.

T1 sequence (P13569 with tags, fused parts or gaps DEL508-508): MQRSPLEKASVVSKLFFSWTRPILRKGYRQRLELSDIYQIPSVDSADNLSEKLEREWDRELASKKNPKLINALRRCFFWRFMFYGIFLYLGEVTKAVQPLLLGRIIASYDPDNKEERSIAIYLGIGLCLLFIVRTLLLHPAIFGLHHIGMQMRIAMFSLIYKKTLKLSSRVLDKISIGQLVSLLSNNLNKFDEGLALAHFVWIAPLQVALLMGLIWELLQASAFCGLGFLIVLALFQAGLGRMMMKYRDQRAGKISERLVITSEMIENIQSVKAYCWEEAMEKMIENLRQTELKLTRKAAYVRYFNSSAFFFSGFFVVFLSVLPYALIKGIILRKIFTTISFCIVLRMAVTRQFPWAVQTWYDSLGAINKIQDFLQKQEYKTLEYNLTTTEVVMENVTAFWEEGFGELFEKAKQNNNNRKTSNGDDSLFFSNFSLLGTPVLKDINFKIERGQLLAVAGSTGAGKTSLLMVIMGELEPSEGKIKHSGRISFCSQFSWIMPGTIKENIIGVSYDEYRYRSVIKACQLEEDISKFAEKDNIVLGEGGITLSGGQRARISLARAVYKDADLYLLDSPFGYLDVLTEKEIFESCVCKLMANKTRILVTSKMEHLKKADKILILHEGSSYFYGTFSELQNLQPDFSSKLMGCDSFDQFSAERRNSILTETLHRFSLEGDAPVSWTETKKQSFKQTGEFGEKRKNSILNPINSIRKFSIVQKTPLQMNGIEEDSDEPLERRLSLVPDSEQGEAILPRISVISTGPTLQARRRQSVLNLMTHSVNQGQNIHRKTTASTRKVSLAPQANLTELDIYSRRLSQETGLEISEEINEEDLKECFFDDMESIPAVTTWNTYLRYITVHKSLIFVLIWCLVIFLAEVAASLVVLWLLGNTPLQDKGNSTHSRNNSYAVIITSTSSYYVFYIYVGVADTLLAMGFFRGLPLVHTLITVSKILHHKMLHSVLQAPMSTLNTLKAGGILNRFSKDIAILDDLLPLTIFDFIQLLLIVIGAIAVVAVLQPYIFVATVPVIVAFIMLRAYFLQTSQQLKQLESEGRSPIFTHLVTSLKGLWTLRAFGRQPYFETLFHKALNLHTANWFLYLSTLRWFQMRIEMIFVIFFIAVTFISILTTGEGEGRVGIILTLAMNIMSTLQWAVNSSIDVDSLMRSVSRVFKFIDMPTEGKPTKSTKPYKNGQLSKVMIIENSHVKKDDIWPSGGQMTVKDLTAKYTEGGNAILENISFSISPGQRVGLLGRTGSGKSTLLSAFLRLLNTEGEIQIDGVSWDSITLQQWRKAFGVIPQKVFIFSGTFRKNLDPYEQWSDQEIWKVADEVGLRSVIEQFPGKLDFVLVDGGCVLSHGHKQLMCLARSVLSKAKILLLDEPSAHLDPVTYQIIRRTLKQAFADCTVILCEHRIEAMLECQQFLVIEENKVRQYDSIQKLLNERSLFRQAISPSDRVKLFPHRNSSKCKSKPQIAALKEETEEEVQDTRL

Take `COc1ccc(-c2nc(NC(=O)C3(c4ccc5c(c4)OCO5)CC3)sc2C(=O)c2ccc(OC(F)(F)F)cc2)cc1` [Compound 9c]: the EC50 on F508del-CFTR [1] was determined as 140 nM.
Consider `O=C(Nc1nc(-c2ccc(Br)cc2)cs1)C1(c2ccc3c(c2)OCO3)CC1` [Compound 4b], for which, at F508del-CFTR [2], the EC50 is 4900 nM and the pEC50 is given as 5.31 M.
For the compound `Cc1sc(NC(=O)C2(c3ccc4c(c3)OCO4)CC2)nc1-c1ccc(Cl)cc1` [Compound 3a], on F508del-CFTR [2], the EC50 was 2900 nM and the pEC50 is given as 5.54 M.
In the case of `Cc1sc(NC(=O)C2(c3ccc4c(c3)OC(F)(F)O4)CC2)nc1-c1ccc(Br)cc1` [Compound 6a], at F508del-CFTR [2], the EC50 was 3800 nM and the pEC50 was 5.42 M.
For `CCOC(=O)c1ccc(C(=O)c2sc(NC(=O)C3(c4ccc5c(c4)OCO5)CC3)nc2-c2cccc(OC)c2)cc1` [Compound 9l], the EC50 on F508del-CFTR [1] came to 490 nM.
Regarding `CCOC(=O)c1sc(NC(=O)C2(c3ccc4c(c3)OCO4)CC2)nc1-c1cccc(Cl)c1` [Compound 2c], at F508del-CFTR [2], the EC50 is 550 nM and the pEC50 is 6.26 M.
For `COc1ccc(C(=O)c2sc(NC(=O)C3(c4ccc5c(c4)OCO5)CC3)nc2-c2ccccc2OC)cc1` [Compound 9p, 1-(benzo[d][1,3]dioxol-5-yl)-N-(5-(4-methoxybenzoyl)-4-(2-methoxyphenyl)thiazol-2-yl)cyclopropanecarboxamide], the EC50 on F508del-CFTR [1] turned out to be 220 nM.
Regarding `O=C(/C=C\c1ccc2c(c1)OCO2)Nc1nc(-c2ccccc2)c(C(=O)c2ccccc2)s1` [Compound 14b], the “F508del-CFTR corrector activity (in words)” value at F508del-CFTR [1] is reported as “not tolerated”.
Consider `Cc1sc(NC(=O)C2(c3ccc4c(c3)OC(F)(F)O4)CC2)nc1-c1cccc(Cl)c1` [Compound 6b], for which, on F508del-CFTR [2], the EC50 was 5400 nM and the pEC50 is listed as 5.27 M.
As to `COc1ccc(-c2nc(NC(=O)C3(c4ccc5c(c4)OCO5)CC3)sc2C(=O)c2ccc(-c3ccccc3)cc2)cc1` [Compound 9f], at F508del-CFTR [1], the EC50 was determined as 140 nM.
With `Cc1sc(NC(=O)C2(c3ccc4c(c3)OCO4)CC2)nc1-c1ccccc1` [Compound 3d], on F508del-CFTR [2], the EC50 is 1600 nM and the pEC50 is listed as 5.80 M.
For `Cc1sc(NC(=O)C2(c3ccc4c(c3)OCO4)CC2)nc1-c1cccc(O)c1` [Compound 5c], on F508del-CFTR [2], the EC50 was 1200 nM and the pEC50 was 5.92 M.
`CCOC(=O)c1sc(NC(=O)C2(c3ccc4c(c3)OCO4)CC2)nc1-c1ccc(Br)cc1` [Compound 2b]: on F508del-CFTR [2], the EC50 is 300 nM and the pEC50 is given as 6.52 M.
As for `O=C(O)c1ccc(-c2csc(NC(=O)C3(c4ccc5c(c4)OCO5)CC3)n2)cc1` [Compound 5e], at F508del-CFTR [2], the EC50 was > 5000 nM and 5000 nM; the pEC50 was 5.30 M.
Regarding `COc1ccc(-c2nc(NC(=O)C3(c4ccc5c(c4)OCO5)CC3)sc2C(=O)c2ccccc2)cc1` [Compound 9a, 1-(benzo[d][1, 3]dioxol-5-yl)-N-(5-benzoyl-4-(4-methoxyphenyl)thiazol-2-yl)cyclopropane-1-carboxamide], the EC50 on F508del-CFTR [1] was 350 nM.
Turning to `COC(=O)c1ccc(-c2nc(NC(=O)C3(c4ccc5c(c4)OCO5)CC3)sc2C(=O)c2ccc(-c3ccccc3)cc2)cc1` [Compound 9r, Methyl 4-(5-([1,1′-biphenyl]-4-carbonyl)-2-(1-(benzo[d][1,3]dioxol-5-yl)cyclopropane-1-carboxamido)thiazol-4-yl)benzoate], the EC50 at F508del-CFTR [1] amounted to 120 nM.
On the same count and under the same terms, as for `COc1cccc(C(=O)c2sc(NC(=O)C3(c4ccc5c(c4)OCO5)CC3)nc2-c2ccc(Cl)cc2)c1` [Compound 9x], the figure is 370 nM.
`Cc1sc(NC(=O)C2(c3ccc4c(c3)OCO4)CC2)nc1-c1ccc(C(=O)O)cc1` [Compound 5f]: at F508del-CFTR [2], the EC50 is 2900 nM and the pEC50 is 5.54 M.
Consider `CSc1ccc(-c2nc(NC(=O)C3(c4ccc5c(c4)OCO5)CC3)sc2C(=O)c2ccc(-c3ccccc3)cc2)cc1` [Compound 9s, N-(5-([1,1′-biphenyl]-4-carbonyl)-4-(4-(methylthio)phenyl)thiazol-2-yl)-1-(benzo[d][1,3]dioxol-5-yl)cyclopropane-1-carboxamide], for which the EC50 at F508del-CFTR [1] is 130 nM.
Consider `CC(Cc1ccc2c(c1)OCO2)C(=O)Nc1nc(-c2ccccc2)c(C(=O)c2ccccc2)s1` (stereo not drawn) [Compound 13b], for which the “F508del-CFTR corrector activity (in words)” value at F508del-CFTR [1] is recorded as “not tolerated”.
For the compound `CC(=O)Nc1ccc(-c2csc(NC(=O)C3(c4ccc5c(c4)OCO5)CC3)n2)cc1` [Compound 5g], on F508del-CFTR [2], the EC50 was > 5000 nM and 5000 nM; the pEC50 was 5.30 M.
For the compound `COc1cccc(C(=O)c2sc(NC(=O)C3(c4ccc5c(c4)OCO5)CC3)nc2-c2ccc(SC)cc2)c1` [Compound 9v], the EC50 on F508del-CFTR [1] stood at 280 nM.
Regarding `O=C(Nc1nc(-c2ccc(I)cc2)cs1)C1(c2ccc3c(c2)OCO3)CC1` [Compound 4d], on F508del-CFTR [2], the EC50 is 1200 nM and the pEC50 is 5.92 M.
For `O=C(c1ccccc1)c1sc(NC(=O)C2(c3ccc(Cl)cc3)CC2)nc1-c1ccccc1` [Compound 18], the “F508del-CFTR corrector activity (in words)” value on F508del-CFTR [1] is “poorly effective”.
As for `O=C(Nc1nc(-c2cccc(O)c2)cs1)C1(c2ccc3c(c2)OC(F)(F)O3)CC1` [Compound 6c], at F508del-CFTR [2], the EC50 is 1300 nM and the pEC50 is on record as 5.89 M.
`CCOC(=O)c1sc(NC(=O)C2(c3ccc4c(c3)OCO4)CC2)nc1-c1ccc(Cl)cc1` [Compound 2d]: on F508del-CFTR [2], the EC50 was 900 nM and the pEC50 is listed as 6.05 M.
As for `O=C(Nc1nc(-c2cccc(F)c2)cs1)C1(c2ccc3c(c2)OCO3)CC1` [Compound 4e], at F508del-CFTR [2], the EC50 was 2100 nM and the pEC50 was 5.68 M.
In the case of `COc1cccc(C(=O)c2sc(NC(=O)C3(c4ccc5c(c4)OCO5)CC3)nc2-c2cccc(OC)c2)c1` [Compound 9o], the EC50 on F508del-CFTR [1] turned out to be 210 nM.
`Cc1sc(NC(=O)C2(c3ccc4c(c3)OCO4)CC2)nc1-c1ccc(O)cc1` [Compound 5d]: on F508del-CFTR [2], the EC50 is 3900 nM and the pEC50 was 5.41 M.
Regarding `COc1cccc(-c2nc(NC(=O)C3(c4ccc5c(c4)OCO5)CC3)sc2C(=O)c2ccc(-c3ccccc3)cc2)c1` [Compound 9m], the EC50 on F508del-CFTR [1] was found to be 740 nM.
Consider `Cc1sc(NC(=O)C2(c3ccc4c(c3)OCO4)CC2)nc1-c1ccc(F)cc1` [Compound 3e], for which, on F508del-CFTR [2], the EC50 is 900 nM and the pEC50 is given as 6.05 M.
Consider `COc1cccc(C(=O)c2sc(NC(=O)C3(c4ccc5c(c4)OCO5)CC3)nc2-c2cccnc2)c1` [Compound 9w], for which the EC50 at F508del-CFTR [1] was determined as 1520 nM.
The same measure, in the same setting: as for `CCOC(=O)c1ccc(C(=O)c2sc(NC(=O)C3(c4ccc5c(c4)OCO5)CC3)nc2-c2ccc(OC)cc2)cc1` [Compound 9e], the figure is 560 nM.
`Cc1sc(NC(=O)C2(c3ccc4c(c3)OCO4)CC2)nc1-c1cccc(Cl)c1` [Compound 3c]: on F508del-CFTR [2], the EC50 was 2300 nM and the pEC50 is 5.64 M.
As to `O=C(Nc1nc(-c2ccc(Cl)cc2)cs1)C1(c2ccc3c(c2)OCO3)CC1` [Compound 4a], on F508del-CFTR [2], the EC50 was 2900 nM and the pEC50 is given as 5.54 M.
On to `O=C(c1ccccc1)c1sc(NC(=O)C2(c3ccc4c(c3)OCO4)CC2)nc1-c1ccccc1` [Compound 2a], for which, on F508del-CFTR [2], the EC50 was 87 nM and the pEC50 is given as 7.06 M.
With `O=C(Nc1nc(-c2ccc(O)cc2)cs1)C1(c2ccc3c(c2)OC(F)(F)O3)CC1` [Compound 6d], at F508del-CFTR [2], the EC50 is 1700 nM and the pEC50 is 5.77 M.
For `O=C(Nc1nc(-c2cccc(Cl)c2)cs1)C1(c2ccc3c(c2)OCO3)CC1` [Compound 4c], at F508del-CFTR [2], the EC50 is 8200 nM and the pEC50 is reported as 5.09 M.
For `Cc1sc(NC(=O)C2(c3ccc4c(c3)OCO4)CC2)nc1-c1ccc(Br)cc1` [Compound 3b], at F508del-CFTR [2], the EC50 was 1900 nM and the pEC50 is 5.72 M.
With `O=C(Nc1nc(-c2cccc(O)c2)cs1)C1(c2ccc3c(c2)OCO3)CC1` [Compound 5b], at F508del-CFTR [2], the EC50 was 2300 nM and the pEC50 is 5.64 M.
As to `O=C(Nc1nc(-c2ccc(O)cc2)cs1)C1(c2ccc3c(c2)OCO3)CC1` [Compound 5a], at F508del-CFTR [2], the EC50 is 1800 nM and the pEC50 is listed as 5.74 M.
